Experimental data: ChEMBL document CHEMBL4396887, “Five-Membered N-Heterocyclic Scaffolds as Novel Amino Bioisosteres at γ-Aminobutyric Acid (GABA) Type A Receptors and GABA Transporters” (J Med Chem, 2019)
The source made the active and inactive calls. The rule behind the calls is not given here.

Legend:
[1] = molecular target: T1, Gamma-aminobutyric acid receptor subunit alpha-4/beta-2/gamma-2 (Homo sapiens, UniProt P47870+P18507+P48169); assay: Agonist activity at recombinant human GABA-A alpha4beta2gamma2S receptor transiently expressed in human tsA201 cells at >= 100 uM incubated for 30 mins and measured up to 90 secs by FMP dye based FLIPR membrane potential blue assay; assay type: cell-based
[2] = molecular target: T2, GABA-A receptor; alpha-1/beta-2/gamma-2 (Homo sapiens) (UniProt P14867+P47870+P18507); assay: Agonist activity at recombinant human GABA-A alpha1beta2gamma2S receptor transiently expressed in human tsA201 cells at >= 10 uM incubated for 30 mins and measured up to 90 secs by FMP dye based FLIPR membrane potential blue assay; assay type: cell-based
[3] = molecular target: T1, Gamma-aminobutyric acid receptor subunit alpha-4/beta-2/gamma-2; assay: Agonist activity at recombinant human GABA-A alpha4beta2gamma2S receptor transiently expressed in human tsA201 cells incubated for 30 mins and measured up to 90 secs by FMP dye based FLIPR membrane potential blue assay; assay type: cell-based
[4] = molecular target: Sodium- and chloride-dependent GABA transporter 1 (Homo sapiens, UniProt P30531); assay: Inhibition of human GAT1 expressed in Flp-In CHO cells assessed as reduction in [3H]GABA uptake at 100 uM incubated for 3 mins by liquid scintillation counting method relative to control; assay type: cell-based
[5] = species on record: Homo sapiens; assay: Agonist activity at recombinant human GABA-A alpha3beta2gamma2S receptor transiently expressed in human tsA201 cells at >= 30 uM incubated for 30 mins and measured up to 90 secs by FMP dye based FLIPR membrane potential blue assay; assay type: cell-based
[6] = molecular target: Gamma-aminobutyric acid receptor subunit rho-1 (Homo sapiens, UniProt P24046); assay: Agonist activity at recombinant human GABA-A rho-1 receptor transiently expressed in human tsA201 cells assessed as GABA-induced maximum response incubated for 30 mins and measured up to 90 secs by FMP dye based FLIPR membrane potential blue assay relative to GABA; assay type: cell-based
[7] = molecular target: T2, GABA-A receptor; alpha-1/beta-2/gamma-2 (Homo sapiens); assay: Agonist activity at recombinant human GABA-A alpha1beta2gamma2S receptor transiently expressed in human tsA201 cells assessed as GABA-induced maximum response incubated for 30 mins and measured up to 90 secs by FMP dye based FLIPR membrane potential blue assay relative to GABA; assay type: cell-based
[8] = molecular target: T3, Sodium- and chloride-dependent GABA transporter 3 (Homo sapiens) (UniProt P48066); assay: Inhibition of human GAT3 expressed in Flp-In CHO cells assessed as reduction in [3H]GABA uptake at 100 uM incubated for 3 mins by liquid scintillation counting method relative to control; assay type: cell-based
T3 sequence (whole entry): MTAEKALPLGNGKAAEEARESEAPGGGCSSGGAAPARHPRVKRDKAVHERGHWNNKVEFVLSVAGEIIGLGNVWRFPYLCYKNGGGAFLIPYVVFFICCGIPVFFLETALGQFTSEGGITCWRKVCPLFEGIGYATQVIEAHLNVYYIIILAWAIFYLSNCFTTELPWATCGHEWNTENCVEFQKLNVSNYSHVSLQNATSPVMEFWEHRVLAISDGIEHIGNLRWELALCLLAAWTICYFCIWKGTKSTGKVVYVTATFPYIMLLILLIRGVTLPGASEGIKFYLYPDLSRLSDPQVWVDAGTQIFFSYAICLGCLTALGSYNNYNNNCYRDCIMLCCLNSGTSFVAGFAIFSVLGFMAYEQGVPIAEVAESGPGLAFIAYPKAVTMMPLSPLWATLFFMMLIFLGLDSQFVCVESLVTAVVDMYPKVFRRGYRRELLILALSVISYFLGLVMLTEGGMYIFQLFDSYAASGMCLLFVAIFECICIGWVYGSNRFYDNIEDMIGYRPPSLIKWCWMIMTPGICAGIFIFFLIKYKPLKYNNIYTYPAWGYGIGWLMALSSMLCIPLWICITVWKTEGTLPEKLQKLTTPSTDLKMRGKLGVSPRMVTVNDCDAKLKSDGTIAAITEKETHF

[9] = molecular target: Gamma-aminobutyric acid receptor subunit alpha-5/beta-2/gamma-2 (Homo sapiens) (UniProt P47870+P18507+P31644); assay: Agonist activity at recombinant human GABA-A alpha5beta2gamma2S receptor transiently expressed in human tsA201 cells assessed as GABA-induced maximum response incubated for 30 mins and measured up to 90 secs by FMP dye based FLIPR membrane potential blue assay relative to GABA; assay type: cell-based
[10] = molecular target: T4, Sodium- and chloride-dependent GABA transporter 2 (Homo sapiens) (UniProt Q9NSD5); assay: Inhibition of human GAT2 expressed in Flp-In CHO cells assessed as reduction in [3H]GABA uptake at 100 uM incubated for 3 mins by liquid scintillation counting method relative to control; assay type: cell-based
T4 sequence (whole entry): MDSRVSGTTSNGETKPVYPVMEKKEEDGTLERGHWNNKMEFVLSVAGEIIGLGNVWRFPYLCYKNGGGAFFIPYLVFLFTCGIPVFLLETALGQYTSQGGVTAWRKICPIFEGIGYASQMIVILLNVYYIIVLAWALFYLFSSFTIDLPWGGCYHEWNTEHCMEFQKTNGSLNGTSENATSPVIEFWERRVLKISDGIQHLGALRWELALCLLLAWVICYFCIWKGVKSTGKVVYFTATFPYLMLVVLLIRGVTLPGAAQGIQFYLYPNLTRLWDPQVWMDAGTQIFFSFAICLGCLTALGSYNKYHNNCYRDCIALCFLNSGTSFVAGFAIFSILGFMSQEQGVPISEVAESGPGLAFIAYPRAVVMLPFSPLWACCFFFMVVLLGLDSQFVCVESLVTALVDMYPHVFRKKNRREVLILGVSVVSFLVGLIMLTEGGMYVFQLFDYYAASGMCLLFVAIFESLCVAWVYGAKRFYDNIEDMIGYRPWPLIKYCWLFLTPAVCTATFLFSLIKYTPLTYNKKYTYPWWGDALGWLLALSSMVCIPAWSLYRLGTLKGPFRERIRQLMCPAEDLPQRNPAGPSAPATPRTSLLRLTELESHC

[11] = molecular target: T5, Sodium- and chloride-dependent betaine transporter (Homo sapiens) (UniProt P48065); assay: Inhibition of human BGT1 expressed in Flp-In CHO cells assessed as reduction in [3H]GABA uptake at 100 uM incubated for 3 mins by liquid scintillation counting method relative to control; assay type: cell-based
T5 sequence (whole entry): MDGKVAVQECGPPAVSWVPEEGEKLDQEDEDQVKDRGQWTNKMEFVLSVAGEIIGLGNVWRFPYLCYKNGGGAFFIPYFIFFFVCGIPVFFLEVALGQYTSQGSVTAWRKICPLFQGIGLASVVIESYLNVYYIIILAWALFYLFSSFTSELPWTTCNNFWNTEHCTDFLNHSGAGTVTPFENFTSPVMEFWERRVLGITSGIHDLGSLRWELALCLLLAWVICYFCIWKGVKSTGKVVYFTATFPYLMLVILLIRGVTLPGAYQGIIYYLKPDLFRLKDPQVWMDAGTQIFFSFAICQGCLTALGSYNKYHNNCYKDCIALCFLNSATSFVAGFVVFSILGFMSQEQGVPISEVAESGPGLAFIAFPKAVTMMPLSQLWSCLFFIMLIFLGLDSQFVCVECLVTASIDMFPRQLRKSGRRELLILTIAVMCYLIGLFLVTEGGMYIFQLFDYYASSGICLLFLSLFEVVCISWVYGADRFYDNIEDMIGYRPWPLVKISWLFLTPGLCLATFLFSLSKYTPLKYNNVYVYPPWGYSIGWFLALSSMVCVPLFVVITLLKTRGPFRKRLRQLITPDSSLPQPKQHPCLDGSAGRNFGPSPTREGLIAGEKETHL

[12] = molecular target: T1, Gamma-aminobutyric acid receptor subunit alpha-4/beta-2/gamma-2; assay: Agonist activity at recombinant human GABA-A alpha4beta2gamma2S receptor transiently expressed in human tsA201 cells assessed as GABA-induced maximum response incubated for 30 mins and measured up to 90 secs by FMP dye based FLIPR membrane potential blue assay relative to GABA; assay type: cell-based
[13] = species on record: Homo sapiens
[14] = molecular target: T2, GABA-A receptor; alpha-1/beta-2/gamma-2 (Homo sapiens); assay: Agonist activity at recombinant human GABA-A alpha1beta2gamma2S receptor transiently expressed in human tsA201 cells incubated for 30 mins and measured up to 90 secs by FMP dye based FLIPR membrane potential blue assay; assay type: cell-based
[15] = species on record: Homo sapiens; assay: Agonist activity at recombinant human GABA-A alpha3beta2gamma2S receptor transiently expressed in human tsA201 cells assessed as GABA-induced maximum response incubated for 30 mins and measured up to 90 secs by FMP dye based FLIPR membrane potential blue assay relative to GABA; assay type: cell-based

Chain of Gamma-aminobutyric acid receptor subunit rho-1 (P24046 whole entry): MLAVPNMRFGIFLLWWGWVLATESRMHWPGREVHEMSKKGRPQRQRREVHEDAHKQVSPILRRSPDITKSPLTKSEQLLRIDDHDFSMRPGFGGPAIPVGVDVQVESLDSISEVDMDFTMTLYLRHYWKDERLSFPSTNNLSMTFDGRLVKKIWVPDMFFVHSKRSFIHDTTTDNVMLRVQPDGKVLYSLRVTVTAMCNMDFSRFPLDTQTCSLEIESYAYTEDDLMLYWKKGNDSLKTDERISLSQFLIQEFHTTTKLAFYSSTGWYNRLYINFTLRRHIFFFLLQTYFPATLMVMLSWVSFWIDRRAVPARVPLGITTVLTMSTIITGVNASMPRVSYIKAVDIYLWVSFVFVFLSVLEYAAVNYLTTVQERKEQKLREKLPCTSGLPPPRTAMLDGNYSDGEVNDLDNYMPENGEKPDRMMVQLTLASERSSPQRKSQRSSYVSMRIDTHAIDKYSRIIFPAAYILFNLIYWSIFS
Chain of Sodium- and chloride-dependent GABA transporter 1 (P30531 whole entry, looked up): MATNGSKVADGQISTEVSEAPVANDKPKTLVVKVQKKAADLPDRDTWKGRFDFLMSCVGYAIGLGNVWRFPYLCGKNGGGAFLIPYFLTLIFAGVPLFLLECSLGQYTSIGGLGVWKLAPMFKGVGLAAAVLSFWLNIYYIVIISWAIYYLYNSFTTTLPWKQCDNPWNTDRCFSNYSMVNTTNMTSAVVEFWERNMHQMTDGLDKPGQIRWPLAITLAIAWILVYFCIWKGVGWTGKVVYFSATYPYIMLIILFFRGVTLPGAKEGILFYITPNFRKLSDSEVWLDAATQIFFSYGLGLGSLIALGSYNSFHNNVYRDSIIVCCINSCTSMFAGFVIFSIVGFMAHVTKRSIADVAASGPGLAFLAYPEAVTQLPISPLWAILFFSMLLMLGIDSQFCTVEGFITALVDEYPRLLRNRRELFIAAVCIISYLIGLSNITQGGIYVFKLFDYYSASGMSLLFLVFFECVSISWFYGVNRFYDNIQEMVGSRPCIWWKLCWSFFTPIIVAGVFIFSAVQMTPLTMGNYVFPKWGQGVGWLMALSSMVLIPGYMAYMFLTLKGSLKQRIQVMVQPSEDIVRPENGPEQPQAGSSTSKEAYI

Activity [1]: Active
Activity [2]: Active
pEC50 [3]: inactive
inhibition [4]: > 30%
Rmax [6]: 31%
Rmax [7]: inactive
inhibition [8]: > 30%
Rmax [9]: 34%
inhibition [10]: > 30%
inhibition [11]: > 30%
Rmax [12]: inactive
pEC50 [13]: inactive
pEC50 [14]: inactive
Structure (SMILES): CC(C(=O)O)C1CSC(N)=N1 (stereo in doubt; l-10b)
Activity [5]: Active
Rmax [15]: inactive
